For series [1], the target named is T1, HRP (Armoracia rusticana, UniProt P00433).
T1 sequence (P00433 31-338): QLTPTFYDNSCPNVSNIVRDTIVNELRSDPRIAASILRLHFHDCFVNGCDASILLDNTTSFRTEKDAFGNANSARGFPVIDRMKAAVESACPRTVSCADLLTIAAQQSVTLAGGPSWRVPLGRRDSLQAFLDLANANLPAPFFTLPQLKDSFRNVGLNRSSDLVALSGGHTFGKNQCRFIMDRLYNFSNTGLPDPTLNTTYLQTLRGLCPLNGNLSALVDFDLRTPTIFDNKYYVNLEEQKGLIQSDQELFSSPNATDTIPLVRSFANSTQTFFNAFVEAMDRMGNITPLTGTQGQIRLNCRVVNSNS
As to the kind of experiment: Comparison of signal intensity (Example 10): maximum signal with HRP. In kind it is biochemical, horseradish. As to conditions: 3×10^−4 M compound, 0.025 M tris pH 8, 2.5 mM urea peroxide, 4 mM p-hydroxycinnamic acid; 3.5×10^−16 moles of HRP. How it is done: The maximum signal produced by each of compounds 14, and 27-29 was compared by reacting a 100 μL aliquot of reagent compositions comprising 0.025 M tris buffer, pH 8, 2.5 mM urea peroxide, 4 mM p-hydroxycinnamic acid, 0.5 mM EDTA, 0.1% Tween 20, and 3×10^−4 M of the test compound with 3.5×10^−16 moles of HRP. Each reagent reached maximum light intensity in about 1 minute.

Series [2] concerns the target T1, HRP. Nature of the series: Chemiluminescent detection of HRP with compound 27. The note with it: 3×10^−4 M compound 27, pH 8.0, p-hydroxycinnamic acid. In kind it is biochemical, horseradish. How it is done:
(§1) Reagent compositions comprising 0.025 M tris buffer, pH 8.0, 2.5 mM urea peroxide, 4 mM p-hydroxycinnamic acid, 0.5 mM EDTA, 0.1% Tween 20 and 3×10^−4 M compound 27 were tested for production of chemiluminescence by reacting triplicate 100 μL aliquots with 10 μL of HRP in the range 1.4×10^−16 to 1.4×10^−20 moles. Light production ensued upon mixing and reached maximum intensity in about 1 min. The relation between chemiluminescence intensity at 1.5 min and amount of enzyme is depicted in FIG. 2 along with the results for Ref. compound 1 at 15 min as described above.

Series [3] deals with T1, HRP. Nature of the series: Chemiluminescence time profile (Example 12). It is filed as biochemical, horseradish. The note with it: 3×10^−4 M compound 27, 3.5×10^−16 moles of HRP; compared with reagents of Example 11. How it is done: Reagent compositions comprising 0.025 M tris buffer, pH 8.0, 2.5 mM urea peroxide, 4 mM p-hydroxy-cinnamic acid, 0.5 mM EDTA, 0.1% Tween 20, and 3×10^−4 M compound 27 were tested for production of chemiluminescence by reacting a 100 μL aliquot with 3.5×10^−16 moles of HRP.

In series [4] the target is T1, HRP. As to the kind of experiment: Comparison of signal intensity (Example 9): chemiluminescence on reaction of reagent with HRP. It is filed as biochemical, horseradish. As to conditions: 5×10^−5 M compound, 0.01 M tris pH 8, 0.5 mM urea peroxide, 0.1 mM p-phenylphenol, 0.025% Tween 20; 3.5×10^−16 moles of HRP. As to the method: Reagent compositions comprising 0.01 M tris buffer, pH 8, 0.5 mM urea peroxide, 0.1 mM p-phenylphenol, […], 0.025% Tween 20, and 5×10^−5 M of each compound in the table below except the compound designated Ref. 1 were tested for production of chemiluminescence by reacting a 100 μL aliquot with 3.5×10^−16 moles of HRP. The reagent formulation for Ref. 1 comprised 0.05 M tris buffer, pH 8.6, 0.25 mM urea peroxide, 0.05 mM p-phenylphenol, 0.5 mM EDTA, 0.0125% Tween 20, and 3.3×10^−4 M Ref. 1. For comparison, data are provided for reference compounds 1 and 2.

In series [5] the target is T1, HRP. As to the kind of experiment: Stability of working solutions by solution assay. Set-up: key to Activity / Activity (Control): maximum chemiluminescence intensity (arbitrary light units). As to conditions: for Activity (Control): fresh reagent from components stored at 4° C.; for Activity: stored working solution. In kind it is physicochemical, horseradish. How it is done: Reagent stability of the working solutions of compound 53 and compound 46 was assessed by preparing the working solution by combining 50 μL aliquots of the two component solutions and storing the mixed solutions at 4° C. or room temperature. The working solution contained 0.025 M tris buffer, pH 8, 2.5 mM urea peroxide, 4 mm p-hydroxycinnamic acid, 0.5 mM EDTA, 0.1% Tween 20, and 0.05 mM of the substrate. Chemiluminescent assays were run with 3.5×10^−16 moles of HRP at 25° C. Maximum intensity results were compared to the values obtained with fresh reagent prepared from the individual components stored at 4° C. […] The composition containing compound 53 was unchanged after four months at 4° C., that containing compound 46 was unchanged after 9 months at 4° C.

The target of series [6] is T2, HRP-labeled antibody (Armoracia rusticana, UniProt P00433).
T2 sequence (P00433 31-338): T1 sequence (P00433 31-338)
As to the kind of experiment: Western blot of β-galactosidase on nitrocellulose membrane with compound 46. In kind it is biochemical. The note with it: 1 mM compound 46, nitrocellulose, time points up to 120 min. As to the method:
A western blot assay of β-galactosidase as the test antigen was conducted according to the procedure described in U. K. Laemmli, Nature (London), 227, 680 (1970) using a PVDF membrane. β-Galactosidase standards in the range of 5000-5 pg. The detection reagent containing Compound 1 permitted detection to be performed in under 1 minute.
(§2) Western blot assays of β-galactosidase were conducted according to Example 13 but using nitrocellulose membrane and a detection reagent comprising 0.025 M tris buffer, pH 8.0, 2.5 mM urea peroxide, 4 mM p-hydroxycinnamic acid, 0.5 mM EDTA, 0.1% Tween 20, and 1 mM compound 46.

In series [7] the target is T1, HRP. As to the kind of experiment: Comparison of signal intensity (Example 17): maximum signal with HRP. It is filed as biochemical, horseradish. The note with it: 1 mM test compound (Formulation 1.0); 3.5×10^−16 moles of HRP. How it is done: The maximum signal produced by each of compounds 40-51 was compared by reacting a 100 μL aliquot of reagent compositions comprising 0.025 M tris buffer, pH 8, 2.5 mM urea peroxide, 4 mM p-hydroxycinnamic acid, 0.5 mM EDTA, 0.1% Tween 20, and either 1 mM, 0.3 mM, 0.15 mM or 0.05 mM of the test compound with 3.5×10^−16 moles of HRP. Each reagent reached maximum light intensity in 1-3 minutes.

Series [8] has as its target T2, HRP-labeled antibody. Nature of the series: Stability of working solution by western blot assay. As to conditions: stored 1 year at 4° C. It is filed as physicochemical. As to the method: as §2
A further measure of the long term stability of a working solution containing compound 46 was provided by serial western blot assays over a 1 year period according to the procedure in example 18. FIG. 9 depicts the performance comparison in the western blot protocol described above using fresh vs. 1 year old working solutions.

Series [9] addresses T1, HRP. Nature of the series: Chemiluminescent detection of HRP with compound 14. It is filed as biochemical, horseradish. The note with it: 3×10^−4 M compound 14, pH 8.0, p-hydroxycinnamic acid. How it is done: as §1, with “14” for “27”, “intensity” for “intensity at 1.5 min”, “1. For comparison,” for “2 along with”, “relationship between S-B and amount of HRP is also shown” for “results”, “reference” for “Ref.”, “having the formula:” for “at 15 min as described above.”
The results for the reference compound were measured 15 minutes after addition of 10 μL of solutions of HRP containing between 1.4×10^−15 and 1.4×10^−19 moles of enzyme to 100 μL of the reagent comprising 0.055 M tris buffer, pH 8.6, 0.25 mM urea peroxide, 0.05 mM p-phenylphenol, 0.5 mM EDTA, 0.0125% Tween 20 and 3.3×10^−4 M of Ref 1.

The subject of series [10] is peroxidase. The note with it: reacted with HRP; disclosed in U.S. Pat. No. 5,922,558; cited from earlier work.

Each structure is given as a SMILES string.

As for `CSC(SCCCS(=O)(=O)[O-])=C1c2ccccc2N(Cc2ccccc2)c2ccccc21.[Na+]` [Compound 27], the Signal/Background in series [1] is 6933; in [4], 533. Also, in [2], the “time to reach maximum intensity” value is “about 1 min”. Moreover, the “relative chemiluminescence time profile” value in [3] is “rapid generation of chemiluminescence and higher signal level”.
Turning to `O=S(=O)([O-])CCCOC1CSC(=C2c3ccccc3N(c3ccccc3)c3ccccc32)SC1.[Na+]` (stereo not shown) [Compound 46], the “% Rel. Activity (Control)” value in series [5] (2 months) was found to be 101.6%; in series [5] (3.5 months) it was 100.2%; in [5] (4 months), 100.0%; in series [5] (6 months), 97.0%; in [5] (9 months), 99.3%; in series [5] (12 months), 90.9%. In series [5] (9 months at 4° C.), the “working solution composition after storage” value is recorded as “unchanged”. For the same compound, the “Activity (Control)” value in series [5] (2 months) was 610; in series [5] (3.5 months), 613; in series [5] (4 months), 600; in [5] (6 months) it was 660; in [5] (9 months), 720; in [5] (12 months), 660. Besides, the Activity was found to be 620 in series [5] (2 months); 614 in series [5] (3.5 months); 600 in series [5] (4 months); 640 in series [5] (6 months); 715 in [5] (9 months); 600 in series [5] (12 months). Moreover, in [5] (up to three weeks at room temperature, 0.05 mM substrate), the “reagent performance on storage of working solution” value is given as “no deterioration of reagent performance”. Further, in [6], the “detection of β-gal” value is “excellent sensitivity”. For the same compound, the Signal/Background in series [7] stood at 13000. Besides, the “western blot performance, fresh vs. 1 year old working solution” value in series [8] is reported as “no diminution in blotting assay sensitivity”.
Regarding `CSC(SCCCS(=O)(=O)[O-])=C1c2ccccc2N(c2ccccc2)c2ccccc21.[Na+]` [Compound 14], the Signal/Background in [1] is recorded as 2491; in series [4], 688. Besides, the “time to reach maximum intensity” value in series [9] is reported as “about 1 min”.
Consider `COC(Sc1ccccc1)=C1c2ccccc2N(C)c2ccccc21` [drawing 18], for which the “time to reach maximum chemiluminescence intensity” value in series [10] is 7 min.

The record behind these values is patent US8106203B2, “Assay methods using chemiluminescent detection of peroxidase” (Lumigen, Inc., priority 2001, dated 2012).
